# From patent US9126999B2, “Tetrahydropyrazolopyrimidine compounds” (EISAI R&D MANAGEMENT CO., LTD., priority 2012, dated 2015)
# Molecular target: T1, Human TLR9 (Homo sapiens, UniProt Q9NR96)
# T1 sequence (Q9NR96 26-1032): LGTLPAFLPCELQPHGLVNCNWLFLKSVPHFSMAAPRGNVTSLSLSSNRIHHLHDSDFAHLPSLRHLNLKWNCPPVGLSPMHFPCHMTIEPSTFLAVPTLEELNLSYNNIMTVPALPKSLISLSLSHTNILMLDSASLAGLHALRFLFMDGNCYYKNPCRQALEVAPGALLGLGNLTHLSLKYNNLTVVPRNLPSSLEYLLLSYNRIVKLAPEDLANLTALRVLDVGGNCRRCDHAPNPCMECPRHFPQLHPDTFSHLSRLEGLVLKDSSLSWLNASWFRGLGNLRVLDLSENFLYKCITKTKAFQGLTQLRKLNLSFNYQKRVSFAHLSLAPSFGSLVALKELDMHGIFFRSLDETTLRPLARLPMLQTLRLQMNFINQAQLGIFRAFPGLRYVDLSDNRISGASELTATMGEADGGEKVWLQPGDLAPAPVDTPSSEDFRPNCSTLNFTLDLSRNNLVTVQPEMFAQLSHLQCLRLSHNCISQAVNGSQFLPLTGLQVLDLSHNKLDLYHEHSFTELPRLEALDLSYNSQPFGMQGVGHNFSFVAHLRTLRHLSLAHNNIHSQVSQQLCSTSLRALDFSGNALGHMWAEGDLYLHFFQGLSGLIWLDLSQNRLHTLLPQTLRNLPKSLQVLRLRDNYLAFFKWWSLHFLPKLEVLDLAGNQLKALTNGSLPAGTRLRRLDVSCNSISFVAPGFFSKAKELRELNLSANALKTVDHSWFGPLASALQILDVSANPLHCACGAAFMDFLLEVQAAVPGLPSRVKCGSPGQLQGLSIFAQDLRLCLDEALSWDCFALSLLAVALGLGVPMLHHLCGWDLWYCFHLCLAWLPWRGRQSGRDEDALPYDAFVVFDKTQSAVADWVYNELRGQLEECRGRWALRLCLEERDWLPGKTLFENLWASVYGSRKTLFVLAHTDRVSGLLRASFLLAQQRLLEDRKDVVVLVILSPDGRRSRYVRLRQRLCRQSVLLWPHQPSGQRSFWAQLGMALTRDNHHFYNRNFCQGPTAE
# Assay: HEK-293 NF-kappaB luciferase reporter assay, CpG-ODN stimulus
# Type: cell-based
# Parameters: engineered to stably and individually express human TLR4, TLR7 or TLR9 full-length ORF cDNAs; expressed in transfected cells; host or cells: HEK-293 (ATCC) with ELAM-1 NF-kappaB luciferase reporter
# Details: ligand CpG-ODN, analyte NFkB-luciferase
# From the text: In vitro pharmacology: HEK-293 cells (ATCC) were engineered to stably express a NF-kappaB transcription factor inducible E-selectin (ELAM-1) luciferase reporter derived from the plasmid pGL3 (Promega) containing base pairs −2241 bp to −254 bp from the promoter of the human E-selectin gene (Accession No. NM_000450). These cells were then subsequently engineered to stably and individually express human TLR4, TLR7 or TLR9 full-length ORF cDNAs. Human TLR4 cDNA (Accession No. NM_138554) was cloned into pcDNA 3.0 expression vector (Invitrogen). TLR4 transfected cells were also engineered to express human MD-2 co-receptor [MD-2 cDNA (Accession No. NM_015364) was cloned into the pEF-BOS vector] and were supplemented with 10 nM soluble CD14 (R&D Systems) in the media to optimize LPS responsiveness. Human TLR9 cDNA (Accession No. NM_017442) was cloned into the pBluescript II KS vector (Agilent). Human TLR7 cDNA (Accession No. NM_016562) was obtained from OriGene. HEK-293 cells stably expressing human TLR8 (Accession No. NM_138636) or mouse TLR7 (Accession No. NM_133211) were purchased from InvivoGen and were then stably transfected with pNiFty2(NF-kappaB)-luciferase reporter plasmid (InvivoGen). […]
compound,measurement,value
"COc1ccc([C@@H]2C[C@H](C(F)(F)F)n3nc(-c4ccc(C(=O)N5CCNCC5)cc4)cc3N2)cc1OC [ER-892887, (4-((5S,7R)-5-(3,4-dimethoxyphenyl)-7-(trifluoromethyl)-4,5,6,7-tetrahydropyrazolo[1,5-a]pyrimidin-2-yl)phenyl)(piperazin-1-yl)methanone]",IC50,> 10 µM
